Data on 24 molecules can be found in patent publication US9187469B2, “Morpholinylbenzotriazines for use in cancer therapy” (Merck Patent GmbH, priority 2011, dated 2015).

The subject of data set [1] is DNA-PK phosphorylation at serine 2056 in HCT116 cells. As to the kind of experiment: Cellular DNA-PK phosphorylation at serine 2056 (Example 5). The class given is cell-based. The settings on record: 10 μM bleomycin, six hours. On the procedure:
HCT116 cells were cultivated in MEM alpha medium with 10% of foetal calf serum, 1 mM sodium pyruvate and 2 mM glutamine at 37° C. and 10% CO2. The cells were detached from the base of the culture vessels with the aid of trypsine/EDTA, centrifuged off in centrifuge tubes and taken up in fresh medium. The cell density was subsequently determined. 200,000 cells were sown per cavity of a 12-well cell culture plate in 1 ml of culture medium and cultivated overnight. Next day, 10 μM bleomycin and test substances in fresh culture medium was added to the cells and these were cultivated for a further six hours. Cell lysis was subsequently carried out. The cell lysates were investigated by SDS polyacrylamide gel electrophoresis by means of DNA-PK-specific antibodies (Abcam ab13852: total DNA-PK; ab18192: phosphoserine 2056 DNA-PK) and Western Blotting. The enzymatic reaction was developed with the aid of a chemiluminescence reagent. The chemiluminescence was recorded with the aid of a documentation system (VersaDoc™, Bio-Rad, USA) and evaluated densitometrically with the aid of instrument-specific software (Quantity One). The signals with phospho-DNA-PK-specific antibodies were standardised to the signal with the antibody against the total protein DNA-PK. IC50 values and percentage inhibition data were determined by referencing to the signal level of the bleomycin-treated vehicle control group.

Data set [2] concerns the target T1, DNA-PK (Homo sapiens (Human), UniProt P78527). As to the kind of experiment: DNA-PK biochemical assay (FlashPlate kinase assay, Example 4). Particulars: 5 μM ATP. On the procedure: The kinase assay was carried out in streptavidin-coated […] microtitre FlashPlates®. To this end, 1.5 μg of the DNA-PK/protein complex and 100 ng of biotinylated substrate, such as, for example, PESQEAFADLWKK biotin-NH2 (“biotin-DNA-PK peptide”), in a total volume of 36.5 μl (34.25 mM HEPES/KOH, 7.85 mM Tris-HCl, 68.5 mM KCl, 5 μM ATP, 6.85 mM MgCl2, 0.5 mM EDTA, 0.14 mM EGTA, 0.69 mM DTT, pH 7.4), were incubated at room temperature for 90 min with 500 ng of DNA from calf thymus, 0.1 μCi of 33P-ATP and 1.8% of DMSO per well with or without the test compound. The reaction was stopped using 50 μl/well of 200 mM EDTA. After incubation for a further 30 min at room temperature, the liquid was removed. Each well was washed three times with 100 μl of 0.9% sodium chloride solution. A non-specific reaction (blank value) was determined using 10 μM of a proprietary kinase inhibitor. The radioactivity measurement was carried out by means of a TopCount. IC50 values were calculated in RS1 (Kashishian et al. (2003) Molecular Cancer Therapeutics 1257) and are compiled in Table 1.

The conditions of data set [3]: cited from earlier work.
Data set [4] deals with kinases of the PI3K isoenzyme family. The settings on record: cited from earlier work.
The subject of a further data set is mammal cells. The settings on record: Rosenzweig et al. (1999); cited from earlier work.
The target of data set [5] is T1, DNA-PK. Particulars: Hardcastle et al. (2005); cited from earlier work.
The test system of a further data set is HCT116 cells. In words: Cellular colony growth test with X-ray irradiation (Example 6). The class given is cell-based. Particulars: Homo sapiens, HCT-116; HCT116, at 4.8 Gray. The method, then:
The colorectal carcinoma cell line HCT116 was cultivated in MEM alpha medium with 10% of foetal calf serum, 1 mM sodium pyruvate and 2 mM glutamine at 37° C. and 10% CO2. The cells were detached from the base of the culture vessels with the aid of trypsine/EDTA, centrifuged off in centrifuge tubes and taken up in fresh medium. The cell density was subsequently determined. 300 cells were sown out in 6-well cell culture plates in 2 ml of culture medium and cultivated overnight. Next day, the cells were treated with test substances for one hour before the cell culture plates were treated with defined doses of X-rays (in general 0, 2.4, 4.8, 12 Gray; irradiation instrument: Faxitron RX-650; Faxitron X-Ray LLC, USA). In order to determine the dose/effect relationships, the cells were treated with various concentrations of a test substance. After irradiation, the cells are cultivated for a further 24 hours in the presence of the test substance, the culture medium was then replaced with culture medium without test substance, and the cells were cultivated for a further 6-8 days. The cell colonies formed were subsequently stained with the aid of Crystal Violet and counted in a colony counter (Gelcount, Oxford Optronics, UK). Dose/effect curves, in particular IC50 values, were determined using a curve adaptation function for nonlinear dose/effect relationships.

The structures appear in SMILES notation. Read-outs that look alike come from different tables or passages of the source. Where only a bound is given, the exact number is not on record here.

`O[C@H](c1nccs1)[C@H]1CCCN(c2nnnc3cc(N4CCOCC4)ccc23)C1` [(S)-[(S)-1-(7-morpholin-4-ylbenzo[d]-1,2,3-triazin-4-yl)piperidin-3-yl]thiazol-2-ylmethanol]: in data set [1], the “cellular activity (assay from Example 5)” value is “sub-micromolar”. Also, the IC50 at DNA-PK [2] (read-out: biochemical activity (assay from Example 4)) was 0.001 µM. As to `CCN1CCN(CC(=O)Nc2ccc(-c3cccc4c(=O)cc(N5CCOCC5)oc34)c3sc4ccccc4c23)CC1` [KU-0060648], the “solubility profile in aqueous medium” value in data set [3] was “improved solubility profile”. Besides, the “inhibition of kinases of the PI3K isoenzyme family” value in data set [4] was “potently inhibited”. On to `O=c1cc(N2CCOCC2)oc2c(-c3ccccc3)cccc12` [LY294002], for which, in the data set with mammal cells, the “increase in sensitivity to ionising irradiation in cellular terms” value is “weak increase”. For `O=c1cc(N2CCOCC2)oc2c(-c3cccc4c3sc3ccccc34)cccc12` [NU-7441], the IC50 on DNA-PK [5] is 0.02 µM. Consider `Cc1cnc([C@@H](O)[C@H]2CCCN(c3nnnc4cc(N5CCOCC5)ccc34)C2)s1` [No. 12, (S)-(5-Methyl-thiazol-2-yl)-[(S)-1-(7-morpholin-4-ylbenzo[d]-1,2,3-triazin-4-yl)-piperidin-3-yl]-methanol], for which the IC50 with HCT116 cells was under 0.4 µM; at DNA-PK [2] (read-out: Bonding DNA-PK IC50), under 0.1 µM. With `O[C@@H](c1nccs1)[C@H]1CCCN(c2nnnc3cc(N4CCOCC4)ccc23)C1` [compound 1, (R)-[(S)-1-(7-Morpholin-4-yl-benzo[d]-1,2,3-triazin-4-yl)-piperidin-3-yl]-thiazol-2-yl-methanol], the IC50 on DNA-PK [2] (read-out: Bonding DNA-PK IC50) was under 0.1 µM. Still for that read-out and setting: for `O[C@H](c1nccs1)[C@@H]1CCCN(c2nnnc3cc(N4CCOCC4)ccc23)C1` [compound 2, (S)-[(R)-1-(7-Morpholin-4-yl-benzo[d]-1,2,3-triazin-4-yl)-piperidin-3-yl]-thiazol-2-yl-methanol] the value was under 0.1 µM. Same read-out and setting: for `O[C@@H](c1nccs1)[C@@H]1CCCN(c2nnnc3cc(N4CCOCC4)ccc23)C1` [compound 3, (R)-[(R)-1-(7-Morpholin-4-yl-benzo[d]-1,2,3-triazin-4-yl)-piperidin-3-yl]-thiazol-2-yl-methanol] the value was under 0.1 µM; for `Cc1csc([C@@H](O)[C@H]2CCCN(c3nnnc4cc(N5CCOCC5)ccc34)C2)n1` [compound 4, (S)-(4-Methyl-thiazol-2-yl)-[(S)-1-(7-morpholin-4-ylbenzo[d]-1,2,3-triazin-4-yl)-piperidin-3-yl]-methanol], under 0.1 µM; for `Cc1csc([C@H](O)[C@H]2CCCN(c3nnnc4cc(N5CCOCC5)ccc34)C2)n1` [compound 5, (R)-(4-Methyl-thiazol-2-yl)-[(S)-1-(7-morpholin-4-ylbenzo[d]-1,2,3-triazin-4-yl)-piperidin-3-yl]-methanol], under 0.1 µM. The same measure, in the same setting: for `Cc1csc([C@@H](O)[C@@H]2CCCN(c3nnnc4cc(N5CCOCC5)ccc34)C2)n1` [compound 6, (S)-(4-Methyl-thiazol-2-yl)-[(R)-1-(7-morpholin-4-ylbenzo[d]-1,2,3-triazin-4-yl)-piperidin-3-yl]-methanol] the value was under 0.1 µM; for `Cc1csc([C@H](O)[C@@H]2CCCN(c3nnnc4cc(N5CCOCC5)ccc34)C2)n1` [compound 7, (R)-(4-Methyl-thiazol-2-yl)-[(R)-1-(7-morpholin-4-ylbenzo[d]-1,2,3-triazin-4-yl)-piperidin-3-yl]-methanol], under 0.1 µM. Turning to `C[C@](O)(c1nccs1)[C@H]1CCCN(c2nnnc3cc(N4CCOCC4)ccc23)C1` [compound 8, (R)-1-[(S)-1-(7-Morpholin-4-yl-benzo[d]-1,2,3-triazin-4-yl)-piperidin-3-yl]-1-thiazol-2-yl-ethanol], at DNA-PK [2] (read-out: Bonding DNA-PK IC50), the IC50 was under 0.1 µM. Regarding `C[C@@](O)(c1nccs1)[C@H]1CCCN(c2nnnc3cc(N4CCOCC4)ccc23)C1` [compound 9, (S)-1-[(S)-1-(7-Morpholin-4-yl-benzo[d]-1,2,3-triazin-4-yl)-piperidin-3-yl]-1-thiazol-2-yl-ethanol], the IC50 on DNA-PK [2] (read-out: Bonding DNA-PK IC50) is under 0.1 µM. The same measure, in the same setting: for `Cc1nc([C@H](O)[C@@H]2CCCN(c3nnnc4cc(N5CCOCC5)ccc34)C2)sc1C` [compound 10, (R)-(4,5-Dimethyl-thiazol-2-yl)-[(R)-1-(7-morpholin-4-ylbenzo[d]-1,2,3-triazin-4-yl)-piperidin-3-yl]-methanol] the value was under 0.1 µM; for `Cc1nc([C@@H](O)[C@H]2CCCN(c3nnnc4cc(N5CCOCC5)ccc34)C2)sc1C` [compound 11, (S)-(4,5-Dimethyl-thiazol-2-yl)-[(S)-1-(7-morpholin-4-ylbenzo[d]-1,2,3-triazin-4-yl)-piperidin-3-yl]-methanol], under 0.1 µM. On the same count and under the same terms, the value for `Cc1cnc([C@H](O)[C@H]2CCCN(c3nnnc4cc(N5CCOCC5)ccc34)C2)s1` [compound 13, (R)-(5-Methyl-thiazol-2-yl)-[(S)-1-(7-morpholin-4-ylbenzo[d]-1,2,3-triazin-4-yl)-piperidin-3-yl]-methanol] was under 0.1 µM. Same read-out and setting: the value for `COc1ccc([C@@H](O)[C@H]2CCCN(c3nnnc4cc(N5CCOCC5)ccc34)C2)nn1` [compound 14, (S)-(6-Methoxy-pyridazin-3-yl)-[(S)-1-(7-morpholin-4-yl-benzo[d]-1,2,3-triazin-4-yl)-piperidin-3-yl]-methanol] was under 0.1 µM; that for `COc1ccc([C@H](O)[C@H]2CCCN(c3nnnc4cc(N5CCOCC5)ccc34)C2)nn1` [compound 15, (R)-(6-Methoxy-pyridazin-3-yl)-[(S)-1-(7-morpholin-4-yl-benzo[d]-1,2,3-triazin-4-yl)-piperidin-3-yl]-methanol] was under 0.1 µM. As to `COc1ccc([C@@H](O)[C@H]2CCCN(c3nnnc4cc(N5CCOCC5)ccc34)C2)cn1` [compound 16, (S)-(6-Methoxy-pyridin-3-yl)-[(S)-1-(7-morpholin-4-ylbenzo[d]-1,2,3-triazin-4-yl)-piperidin-3-yl]-methanol], the IC50 on DNA-PK [2] (read-out: Bonding DNA-PK IC50) was under 0.1 µM. Same read-out and setting: the value for `COc1ccc([C@H](O)[C@H]2CCCN(c3nnnc4cc(N5CCOCC5)ccc34)C2)cn1` [compound 17, (R)-(6-Methoxy-pyridin-3-yl)-[(S)-1-(7-morpholin-4-ylbenzo[d]-1,2,3-triazin-4-yl)-piperidin-3-yl]-methanol] was under 0.1 µM. As for `CC(C)n1cc([C@@H](O)[C@H]2CCCN(c3nnnc4cc(N5CCOCC5)ccc34)C2)cn1` [compound 18, (S)-(1-Isopropyl-1H-pyrazol-4-yl)-[(S)-1-(7-morpholin-4-yl-benzo[d]-1,2,3-triazin-4-yl)-piperidin-3-yl]-methanol], on DNA-PK [2] (read-out: Bonding DNA-PK IC50), the IC50 was under 0.1 µM. Still for that read-out and setting: the value for `CC(C)(C)n1cc([C@@H](O)[C@H]2CCCN(c3nnnc4cc(N5CCOCC5)ccc34)C2)cn1` [compound 19, (S)-(1-tert-Butyl-1H-pyrazol-4-yl)-[(S)-1-(7-morpholin-4-yl-benzo[d]-1,2,3-triazin-4-yl)-piperidin-3-yl]-methanol] was under 0.1 µM; that for `CCn1cc([C@@H](O)[C@H]2CCCN(c3nnnc4cc(N5CCOCC5)ccc34)C2)cn1` [compound 20, (S)-(1-Ethyl-1H-pyrazol-4-yl)-[(S)-1-(7-morpholin-4-ylbenzo[d]-1,2,3-triazin-4-yl)-piperidin-3-yl]-methanol] was under 0.1 µM.
